Measured values from patent US20260232644A1, “Compositions Comprising an Inhibitor of Galectin-3” (University of Liverpool, priority 2023, published 2026).
Where a name gives a salt, the structure may show the parent alone.

Experiments:
[1] = tested on: human pancreatic cancer PANC1 cells; assay: Pancreatic cancer cell adhesion to basement matrix; format: cell-based
Protocol: (§1) Nanty-six well plates were coated with 50 μl Matrigel (1:30 diluted in PBS) at 37° C. for 1 hour.
(§2) Cancer cells, pre-labelled with fluorescent die DiI at 37° C. for 20 minutes, were washed twice with PBS and resuspended into 3×10^4 cells/ml in serum-free medium. The matrix-coated 96-well plates were washed twice with PBS before introduction of 100μ cell suspension with different concentrations of the inhibitors or PBS/DMSO (control) for 1 hour at 37° C. The plates were washed twice with PBS before three randomly selected Field of Views (FOVs) were recorded by fluorescence microscope and number of adhesion cells were quantified by Image J.
MDAMB-231 or PANC-1 cells were seeded into 6-well plate (2×10^5 cells) and cultured at 37° C. for 24 hour. Galectin-3 CRISPR Cas9 Knockout plasmid (2 μg) and galectin-3 HDR plasmid (2 μg) was mixed with Plasmid Transfection Medium (21 μl) for 5 minutes before addition to a mixture of lipofectamine STEM Transfection Reagent (STEM00001) (1 μl) and Plasmid Transfection Medium (25 μl) for 10 minutes at room temperature. The cells in the 6-well plates were washed and introduced with the Plasmid DNA/Lipofectamine STEM Transfection Reagent complex at 37° C. for 24 hour. The culture medium was replaced with fresh antibiotics-free medium for further 24 hour before introduction of 10 μg/mL puromycin-containing medium every three days. Successful co-transfection of the CRISPR/Cas9 KO Plasmid and HDR Plasmid was confirmed by expression of red fluorescence protein of the cells. Galectin-3 knockout in the cells was further confirmed by immunoblotting.

[2] = tested on: THP-1 differentiated macrophages; assay: Galectin-3-induced TNFα secretion from macrophages (ELISA); format: cell-based; conditions: Galectin-3 10 μg/ml, various concentrations
Protocol: Effect of the compound inhibitors on secretion of pro-inflammatory cytokines from macrophages were assessed in THP-1 monocyte differentiated macrophages. THP-1 cells were induced to differentiation into macrophages by incubation with 10 ng/ml PMA for 48 h at 37° C. The culture medium was then replaced with fresh medium without or with 10 μg/ml galectin-3 and various concentrations of the compound inhibitors for 24 h at 37° C. The culture medium was collected and the concentrations of TNFα and IL-1β in the culture medium were determined by TNFα and IL-1β ELISA.

Galectin-3 = biological target: T1, Galectin-3 (Homo sapiens, UniProt P17931); assay: Galectin-3 binding to asialofetuin (ASF) ELISA
T1 construct: made in house; host or cells: E. coli
T1 sequence (P17931 whole entry): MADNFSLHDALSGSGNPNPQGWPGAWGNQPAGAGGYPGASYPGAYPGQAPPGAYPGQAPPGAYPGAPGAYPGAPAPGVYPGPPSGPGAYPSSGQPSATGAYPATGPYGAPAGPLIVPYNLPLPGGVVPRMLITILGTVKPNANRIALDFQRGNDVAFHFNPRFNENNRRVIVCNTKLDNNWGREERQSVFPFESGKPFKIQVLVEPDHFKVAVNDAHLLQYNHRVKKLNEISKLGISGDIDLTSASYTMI
Protocol: (§3) Effect of the inhibitors on galectin binding to its ligand asialo fetuin (ASF) was measured by galectin ELISA. Nanty-six well plates were coated overnight with 20 μg/ml ASF in coating buffer (15 mM Na2CO3 17 mM NaHCO3 pH 9.6.). The wells were washed twice with PBS and incubated with blocking buffer (1% BSA in PBS) for 1 hr. The supernatants were removed and replaced with 5 μg/ml recombinant human galectin without or with different concentrations of the compound inhibitors or lactose in blocking buffer for 1 hr at room temperature. The wells were washed and incubated with 1 μg/ml anti-galectin antibody for 2 hr. Following addition of HRP-conjugated secondary antibody for 1 hr, FAST OPD development solution was added for 15-20 minutes. The reaction was terminated by addition of 4M sulphuric acid. The plates were read at 492 nm (reference wavelength 595 nm) by a microplate reader.

Galectin-8 = biological target: T2, Galectin-8 (Homo sapiens, UniProt O00214); assay: Galectin-8 binding to asialofetuin ELISA; conditions: Gal-8 5 μg/ml, ASF 20 μg/ml
T2 construct: purchased R&D Systems (Abingdon, UK)
T2 sequence (O00214 1-317): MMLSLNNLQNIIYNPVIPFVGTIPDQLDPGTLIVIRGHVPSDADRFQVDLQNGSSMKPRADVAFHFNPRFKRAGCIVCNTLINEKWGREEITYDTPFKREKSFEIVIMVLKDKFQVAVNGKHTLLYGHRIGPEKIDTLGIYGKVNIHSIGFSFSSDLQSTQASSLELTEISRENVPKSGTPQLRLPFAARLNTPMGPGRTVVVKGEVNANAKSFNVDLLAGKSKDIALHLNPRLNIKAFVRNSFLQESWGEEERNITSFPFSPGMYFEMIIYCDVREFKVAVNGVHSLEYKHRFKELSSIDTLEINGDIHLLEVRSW
Protocol: as §3

Galectin-4 = biological target: T3, Galectin-4 (Homo sapiens, UniProt P56470); assay: Galectin-4 binding to asialofetuin ELISA; conditions: Gal-4 5 μg/ml, ASF 20 μg/ml
T3 construct: made in house; host or cells: E. coli
T3 sequence (P56470 1-323): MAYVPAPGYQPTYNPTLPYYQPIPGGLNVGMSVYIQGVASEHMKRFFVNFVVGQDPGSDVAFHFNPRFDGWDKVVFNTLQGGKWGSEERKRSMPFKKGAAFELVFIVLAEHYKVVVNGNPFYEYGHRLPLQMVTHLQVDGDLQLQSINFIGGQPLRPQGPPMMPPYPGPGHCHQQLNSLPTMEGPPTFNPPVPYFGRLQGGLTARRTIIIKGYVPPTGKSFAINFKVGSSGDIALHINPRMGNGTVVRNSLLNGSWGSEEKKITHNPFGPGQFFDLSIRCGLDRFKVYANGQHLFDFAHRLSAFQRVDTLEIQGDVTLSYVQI
Protocol: as §3

Galectin-2 = biological target: T4, Galectin-2 (Homo sapiens, UniProt P05162); assay: Galectin-2 binding to asialofetuin ELISA; conditions: Gal-2 5 μg/ml, ASF 20 μg/ml
T4 construct: made in house; host or cells: E. coli
T4 sequence (P05162 1-132): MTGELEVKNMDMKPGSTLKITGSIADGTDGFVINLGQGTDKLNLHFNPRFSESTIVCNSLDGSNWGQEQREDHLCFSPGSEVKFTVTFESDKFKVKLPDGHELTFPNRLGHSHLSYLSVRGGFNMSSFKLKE
Protocol: as §3

vascular HUVECs = assay: LDH release cytotoxicity assay, HUVECs; format: cell-based, human
Protocol: SW620 cells (5×10^4 cells/ml) were seeded into 96-well plate in DMEM (and incubated at 37° C. 5% CO2 for 24 hr. HUVECs (1.0×10^5 cells/ml) was seeded in EBM medium and incubated for 24-36 hr until they formed a monolayer. Compound inhibitors at different concentrations were then introduced to the cells (10× lysis buffer was included as maximum LDH activity control) for 24 hr. The culture medium was transferred to a new plate and was mixed with equal volume of reaction mixture provided in the kit for 30 min at room temperature before the absorbance was measured at 490 nm (reference 680 nm) by a spectrophotometer.

[3] = tested on: human lung cancer H1975 cells; assay: Lung cancer cell adhesion to basement matrix; format: cell-based
Protocol: as §1, §2

full-length galectin-3 = biological target: T5, full-length galectin-3 (Homo sapiens, UniProt P17931); assay: Tryptophan Fluorescence Spectroscopy (TFS) binding affinity, full-length Galectin-3
T5 construct: made in house; host or cells: E. coli
T5 sequence (P17931 whole entry): as the sequence (P17931 whole entry) above
Protocol: The binding affinity of the inhibitors to galectin-3 was determined by Intrinsic Tryptophan Fluorescence Spectroscopy (TFS) exactly as we described recently [Sindrewicz, P., et al., Intrinsic tryptophan fluorescence spectroscopy reliably determines galectin-ligand interactions. Sci Rep, 2019. 9(1): p. 11851]. The Galectin-3 concentration used was 10 μM and the inhibitor titration concentrations were from 0 to 224 μM. DMSO/control buffer (PBS with 2 mM EDTA) titrations were performed and used for background subtraction.

## NC1CCN(c2nc3c(cc2F)c(=O)c(C(=O)O)cn3-c2ccc(F)cc2F)C1 (centres unmarked) [Formula X, Tosufloxacin tosylate]
[1]; CRISPR/Cas9 Gal3KO cells
  Effect on adhesion of galectin-3 knockout (Gal3KO) PANC1 cells: lost their inhibitory effect
[1]; control cells
  Effect on adhesion of non-transfected (con) PANC1 cells: significant reduction
[1]; different concentrations
  Inhibition of PANC1 cell adhesion to matrix: dose-dependent inhibition
[2]
  Inhibition of galectin-3-induced TNFα secretion: dose-dependent inhibition
Galectin-3; Galectin-3 5 μg/ml, ASF 20 μg/ml, different concentrations of compound, ELISA
  Inhibition of Galectin-3 binding to its ligand asialofetuin (ASF): inhibit galectin-3 binding to ASF in a dose-dependent manner
Galectin-3; read-out: IC50, inhibition of Galectin-3 binding to its ligand
  IC50: ≤ 10 µM
Galectin-8
  Effect on Galectin-8 binding to asialofetuin: does not affect binding
Galectin-4
  Effect on Galectin-4 binding to asialofetuin: does not affect binding
Galectin-2
  Effect on Galectin-2 binding to asialofetuin: does not affect binding
Vascular HUVECs; at 100 μM
  Cytotoxicity to HUVEC cells (LDH release): no detectable cytotoxicity
Vascular HUVECs; various concentrations
  Cytotoxicity to HUVEC cells (LDH release): low cytotoxicity
[3]; Homo sapiens, NCI-H1975
  IC50: ~5 µM
[3]; different concentrations
  Inhibition of H1975 cell adhesion to matrix: dose-dependent inhibition
full-length galectin-3
  Kd: 5 to 7 µM
